Measurements taken from patent publication US7655651B2, “Amide derivatives of 3-phenyl-dihydropyrimido[4,5-d]pyrimidinones, their manufacture and use as pharmaceutical agents” (Hoffmann-La Roche Inc., priority 2004, dated 2010).
pIC50: −log10 of the molar value.

Molecular target: T1, Src (p60^c-src, partially purified) (Homo sapiens, UniProt P12931)
T1 construct: purchased UBI, Upstate Biotech, Inc
Test: SRC-Inhibitor-Assay (time-resolved fluorescence kinase assay)
Assay type: biochemical
Settings: ATP 5 μM; peptide 10 μM; enzyme 2.5 U/ml; enzyme pre-incubated with inhibitor 15 min at 15° C.
Procedure: The activity of the compounds according to this invention as inhibitors for the src-family tyrosine kinases was shown by using the following assay.
SRC-Inhibitor-Assay Parameters:
• whereby both peptides were synthesized by an optimized solid phase peptide synthesis protocol (Merrifield, Fed. Proc. Fed. Amer. Soc. Exp. Biol. 21 (1962) 412) on a Zinsser SMP350 peptide synthesizer. Shortly, the peptide was assembled on […] (22.8 μmol scale) of a Rink-Linker modified polystyrene solid phase by repeatedly conjugating an twenty fold excess of amino acids each protected by temporary piperidine labile Fmoc- and permanent acid labile tert-Bu-, BOC— and O-tert-Bu-groups depending on the side chain function. The substrate sequence AEEEIYGEFEAKKKK was N-terminal additionally mounted with the spacer amino acids Aminocaprylic acid and Glycin. After cleavage of the N-terminal temporary protecting group the still attached and protected peptide was labeled with a 1.5 fold amount of LightCycler-Red 640-N-hydroxy succinimide ester (purchased from Roche Diagnostics GmbH) and triethylamine. After 3 hrs. the resin washed with Dimethylformamide and Isopropanol until the eluates of the blue resin got colourless. […] The substrate was finally isolated by a preparative reverse phase HPLC purification. The purification yielded 12.2 mg RP-HPLC single peak pure blue material (lyophilisate). The identity was proven by MALDI mass spectroscopy [2720.0]. • Enzymes: Upstate Src (p60^c-src, partially purified) were purchased from UBI, Upstate Biotech, Inc.
Time-resolved Fluorescence Assay: Reader: Perkin Elmer, Wallac Viktor 1420-040 multilabel counter; Liquid handling system: Beckman Coulter, Biomek 2000.
ATP, Tween™ 20, 4-(2-hydroxyethyl)-1-piperazineethanesulfonic acid (HEPES) were purchased from Roche Molecular Biochemicals, MgCl2 and MnCl2 were purchased from Merck Eurolab, Tris(2-carboxyethyl)phosphine hydrochloride (TCEP) was purchased from Pierce, 384 Well low volume fluorescence plates was purchased from Falcon.
At first the enzyme is pre-incubated for 15 min. at 15° C. in aqueous solution with corresponding amounts of inhibitors according to this invention. Then the phosphorylation reaction is started by adding a reaction mixture, containing ATP, Peptide and PT66, and subsequent shaking. The proceeding of this reaction is immediately monitored using time resolved fluorescence spectroscopy in a suitable well plate reader.
The IC50-values can be obtained from the reaction rates by using a non-linear curve fit (XLfit software (ID Business Solution Ltd., Guilford, Surrey, UK))

T1 sequence (P12931 whole entry): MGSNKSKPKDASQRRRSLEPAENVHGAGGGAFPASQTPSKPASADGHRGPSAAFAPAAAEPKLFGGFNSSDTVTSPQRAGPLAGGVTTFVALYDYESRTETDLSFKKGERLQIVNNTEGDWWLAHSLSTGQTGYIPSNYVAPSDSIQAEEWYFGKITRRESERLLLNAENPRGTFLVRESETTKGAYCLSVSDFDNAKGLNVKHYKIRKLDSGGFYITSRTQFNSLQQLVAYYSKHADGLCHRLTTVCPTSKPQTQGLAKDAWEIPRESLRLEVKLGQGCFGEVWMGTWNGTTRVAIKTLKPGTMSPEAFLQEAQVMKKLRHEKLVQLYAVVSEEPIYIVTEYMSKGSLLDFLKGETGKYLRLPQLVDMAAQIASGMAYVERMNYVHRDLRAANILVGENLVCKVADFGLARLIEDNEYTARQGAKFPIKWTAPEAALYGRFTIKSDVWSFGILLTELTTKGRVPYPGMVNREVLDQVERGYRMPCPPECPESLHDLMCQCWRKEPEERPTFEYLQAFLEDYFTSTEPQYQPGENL

pIC50	SMILES
7.82 to 9.00	CCN(CC)CCOc1ccc(Nc2ncc3c(n2)N(C)C(=O)N(c2cc(NC(=O)c4ccc(-c5ccccc5)cc4)ccc2Cl)C3)cc1 [Example 1, Biphenyl-4-carboxylic acid (4-chloro-3-{7-[4-(2-diethylamino-ethoxy)-phenylamino]-1-methyl-2-oxo-1,4-dihydro-2H-pyrimido[4,5-d]pyrimidin-3-yl}-phenyl)-amide]
8.62	CCN(CC)CCOc1ccc(Nc2ncc3c(n2)N(C)C(=O)N(c2cc(NC(=O)c4ccccc4)ccc2Cl)C3)cc1 [Example 2-6, N-(4-Chloro-3-{7-[4-(2-diethylamino-ethoxy)-phenylamino]-1-methyl-2-oxo-1,4-dihydro-2H-pyrimido[4,5-d]pyrimidin-3-yl}-phenyl)-benzamide]
7.82 to 9.00	CCN(CC)CCOc1ccc(Nc2ncc3c(n2)N(C)C(=O)N(c2cc(NC(=O)c4ccc(OC)cc4)ccc2Cl)C3)cc1 [Example 2-7, N-(4-Chloro-3-{7-[4-(2-diethylamino-ethoxy)-phenylamino]-1-methyl-2-oxo-1,4-dihydro-2H-pyrimido[4,5-d]pyrimidin-3-yl}-phenyl)-4-methoxy-benzamide]
9.00	CCN(CC)CCOc1ccc(Nc2ncc3c(n2)N(C)C(=O)N(c2cc(NC(=O)c4ccc(C#N)cc4)ccc2Cl)C3)cc1 [Example 2-8, N-(4-Chloro-3-{7-[4-(2-diethylamino-ethoxy)-phenylamino]-1-methyl-2-oxo-1,4-dihydro-2H-pyrimido[4,5-d]pyrimidin-3-yl}-phenyl)-4-cyano-benzamide]
7.30 to 7.82	CCN(CC)CCOc1ccc(Nc2ncc3c(n2)N(C)C(=O)N(c2cc(NC(=O)CCCc4ccccc4)ccc2Cl)C3)cc1 [Example 2-15, N-(4-Chloro-3-{7-[4-(2-diethylamino-ethoxy)-phenylamino]-1-methyl-2-oxo-1,4-dihydro-2H-pyrimido[4,5-d]pyrimidin-3-yl}-phenyl)-4-phenyl-butyramide]
7.82 to 9.00	CCN(CC)CCOc1ccc(Nc2ncc3c(n2)N(C)C(=O)N(c2cc(NC(=O)C=Cc4ccccc4)ccc2Cl)C3)cc1 [Example 2-16, N-(4-Chloro-3-{7-[4-(2-diethylamino-ethoxy)-phenylamino]-1-methyl-2-oxo-1,4-dihydro-2H-pyrimido[4,5-d]pyrimidin-3-yl}-phenyl)-3-phenyl-acrylamide]

Further lines, the molecule ahead of its results:

SMILES	pIC50
CCN(CC)CCOc1ccc(Nc2ncc3c(n2)N(C)C(=O)N(c2cc(NC(=O)C4CCCCCC4)ccc2Cl)C3)cc1 [Example 2-2, Cycloheptanecarboxylic acid (4-chloro-3-{7-[4-(2-diethylamino-ethoxy)-phenylamino]-1-methyl-2-oxo-1,4-dihydro-2H-pyrimido[4,5-d]pyrimidin-3-yl}-phenyl)-amide; compound with acetic acid]	7.30 to 7.82
CCN(CC)CCOc1ccc(Nc2ncc3c(n2)N(C)C(=O)N(c2cc(NC(=O)CCc4ccc(O)cc4)ccc2Cl)C3)cc1 [Example 2-12, N-(4-Chloro-3-{7-[4-(2-diethylamino-ethoxy)-phenylamino]-1-methyl-2-oxo-1,4-dihydro-2H-pyrimido[4,5-d]pyrimidin-3-yl}-phenyl)-3-(4-hydroxy-phenyl)-propionamide; compound with acetic acid]	7.82 to 9.00
CCN(CC)CCOc1ccc(Nc2ncc3c(n2)N(C)C(=O)N(c2cc(NC(=O)Cc4cccnc4)ccc2Cl)C3)cc1 [Example 2-21, N-(4-Chloro-3-{7-[4-(2-diethylamino-ethoxy)-phenylamino]-1-methyl-2-oxo-1,4-dihydro-2H-pyrimido[4,5-d]pyrimidin-3-yl}-phenyl)-2-pyridin-3-yl-acetamide]	7.30 to 7.82
CCN(CC)CCOc1ccc(Nc2ncc3c(n2)N(C)C(=O)N(c2cc(NC(=O)CCc4cccnc4)ccc2Cl)C3)cc1 [Example 2-23, N-(4-Chloro-3-{7-[4-(2-diethylamino-ethoxy)-phenylamino]-1-methyl-2-oxo-1,4-dihydro-2H-pyrimido[4,5-d]pyrimidin-3-yl}-phenyl)-3-pyridin-3-yl-propionamide; compound with acetic acid]	7.82 to 9.00
